From patent US11214565B2, “Compound, compositions, and methods” (Denali Therapeutics Inc., priority 2015, dated 2022) come the findings set out here.

pIC50: −log10 of the molar value.

LRRK2 G2019S enzyme, sequence (Q5S007 whole entry G2019S): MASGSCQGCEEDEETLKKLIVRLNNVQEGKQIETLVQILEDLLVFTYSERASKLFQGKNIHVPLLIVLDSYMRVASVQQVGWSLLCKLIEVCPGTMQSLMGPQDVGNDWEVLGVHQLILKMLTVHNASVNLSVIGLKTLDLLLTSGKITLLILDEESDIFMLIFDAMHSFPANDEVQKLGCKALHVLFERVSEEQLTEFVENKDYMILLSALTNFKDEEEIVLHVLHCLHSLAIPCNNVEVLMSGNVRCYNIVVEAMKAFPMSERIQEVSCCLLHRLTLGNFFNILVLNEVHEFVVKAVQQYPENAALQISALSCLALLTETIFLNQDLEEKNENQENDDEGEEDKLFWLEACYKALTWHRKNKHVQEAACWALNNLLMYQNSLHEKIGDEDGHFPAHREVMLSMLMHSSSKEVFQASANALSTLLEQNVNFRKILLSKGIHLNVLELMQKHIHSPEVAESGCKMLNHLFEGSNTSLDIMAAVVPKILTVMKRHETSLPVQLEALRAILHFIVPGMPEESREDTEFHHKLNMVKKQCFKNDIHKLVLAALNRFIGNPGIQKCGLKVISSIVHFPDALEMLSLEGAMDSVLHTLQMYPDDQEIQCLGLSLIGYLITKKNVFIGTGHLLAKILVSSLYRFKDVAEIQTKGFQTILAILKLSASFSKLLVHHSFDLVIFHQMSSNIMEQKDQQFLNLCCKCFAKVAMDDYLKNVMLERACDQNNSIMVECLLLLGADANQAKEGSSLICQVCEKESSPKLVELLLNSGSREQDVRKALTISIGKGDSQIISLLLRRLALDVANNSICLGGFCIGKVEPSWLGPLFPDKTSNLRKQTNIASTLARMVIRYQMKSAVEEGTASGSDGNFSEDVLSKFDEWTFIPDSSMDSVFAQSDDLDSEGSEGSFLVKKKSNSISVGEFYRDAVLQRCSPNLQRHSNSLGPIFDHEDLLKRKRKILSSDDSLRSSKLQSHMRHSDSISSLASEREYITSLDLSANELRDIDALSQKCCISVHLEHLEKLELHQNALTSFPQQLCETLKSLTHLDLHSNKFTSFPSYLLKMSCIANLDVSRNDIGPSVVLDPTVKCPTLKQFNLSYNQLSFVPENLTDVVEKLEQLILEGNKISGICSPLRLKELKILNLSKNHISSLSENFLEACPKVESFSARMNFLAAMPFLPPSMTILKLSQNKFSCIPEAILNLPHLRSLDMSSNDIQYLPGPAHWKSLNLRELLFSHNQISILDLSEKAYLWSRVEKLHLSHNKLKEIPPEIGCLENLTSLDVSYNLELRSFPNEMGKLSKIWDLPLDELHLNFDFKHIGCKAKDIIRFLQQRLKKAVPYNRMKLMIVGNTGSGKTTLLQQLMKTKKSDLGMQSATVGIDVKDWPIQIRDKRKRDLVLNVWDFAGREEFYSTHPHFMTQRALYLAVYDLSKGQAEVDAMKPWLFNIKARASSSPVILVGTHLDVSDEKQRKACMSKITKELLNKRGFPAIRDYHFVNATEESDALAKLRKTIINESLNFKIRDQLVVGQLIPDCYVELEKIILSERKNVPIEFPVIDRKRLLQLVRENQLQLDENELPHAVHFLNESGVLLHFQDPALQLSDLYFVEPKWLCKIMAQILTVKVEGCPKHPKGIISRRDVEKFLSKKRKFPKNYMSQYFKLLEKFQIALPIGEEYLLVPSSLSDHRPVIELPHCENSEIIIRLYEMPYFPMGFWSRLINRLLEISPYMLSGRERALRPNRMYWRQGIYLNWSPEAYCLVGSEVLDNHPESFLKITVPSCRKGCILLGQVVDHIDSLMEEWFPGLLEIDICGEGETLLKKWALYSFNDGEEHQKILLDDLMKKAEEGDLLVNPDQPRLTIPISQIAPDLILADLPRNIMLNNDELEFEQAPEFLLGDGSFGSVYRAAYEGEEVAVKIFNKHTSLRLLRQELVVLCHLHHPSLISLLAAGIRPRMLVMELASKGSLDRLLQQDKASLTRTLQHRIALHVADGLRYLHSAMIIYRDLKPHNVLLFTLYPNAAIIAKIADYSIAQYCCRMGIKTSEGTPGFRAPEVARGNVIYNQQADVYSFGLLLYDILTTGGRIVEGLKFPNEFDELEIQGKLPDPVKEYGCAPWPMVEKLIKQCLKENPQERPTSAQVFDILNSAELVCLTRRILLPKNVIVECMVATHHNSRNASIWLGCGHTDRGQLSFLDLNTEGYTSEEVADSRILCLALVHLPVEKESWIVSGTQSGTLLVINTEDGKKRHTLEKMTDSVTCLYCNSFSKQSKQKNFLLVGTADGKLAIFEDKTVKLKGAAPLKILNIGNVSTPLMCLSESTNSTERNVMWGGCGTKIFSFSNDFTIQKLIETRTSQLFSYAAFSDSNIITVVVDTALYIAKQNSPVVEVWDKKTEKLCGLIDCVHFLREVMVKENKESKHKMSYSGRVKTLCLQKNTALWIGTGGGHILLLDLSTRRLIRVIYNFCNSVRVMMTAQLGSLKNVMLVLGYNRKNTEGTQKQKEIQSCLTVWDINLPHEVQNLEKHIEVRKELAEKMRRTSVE

One experiment has as its target LRRK2 G2019S enzyme (Homo sapiens (Human), UniProt Q5S007, G2019S). As to the kind of experiment: LRRK2 G2019S TR-FRET biochemical kinase assay (LRRKtide substrate). The following applies: Table A-2; 5 nM LRRK2, 134 μM ATP, 60 minute reaction, 23° C. Summed up:
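TR-FRET phospho-LRRKtide readout (2 nM antibody, 10 mM EDTA, 60 min) after a 60 min, 23 °C kinase reaction. The reaction used 134 μM ATP and 5 nM enzyme in pH 7.5 Tris/MgCl2/EGTA/DTT buffer, with compound and enzyme-substrate mix preincubated for 20 min beforehand.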
For orientation: TR-FRET usually uses a lanthanide donor and a delayed reading to cut background.
Usually pIC50 stands for the negative decadic logarithm of the IC50, by convention in mol/L. Lower therefore signals a large IC50. For the molecule `Cc1nn([C@H]2CC3C(C2)[C@H]3c2ncn(C)n2)cc1Nc1ncc(C(F)(F)F)c(C2CC2)n1` (stereo partly drawn) [Compound A-69, 4-cyclopropyl-N-(3-methyl-1-((1R,3r,5S,6r)-6-(1-methyl-1H-1,2,4-triazol-3-yl)bicyclo[3.1.0]hexan-3-yl)-1H-pyrazol-4-yl)-5-(trifluoromethyl)pyrimidin-2-amine], the pIC50 was over 7.52.
Consider `Cc1nn([C@H]2CC3C(C2)[C@H]3c2ncnn2C)cc1Nc1ncc(C(F)(F)F)c(C2CC2)n1` (stereo partly drawn) [Compound A-70, 4-cyclopropyl-N-(3-methyl-1-((1R,3s,5S,6r)-6-(1-methyl-1H-1,2,4-triazol-5-yl)bicyclo[3.1.0]hexan-3-yl)-1H-pyrazol-4-yl)-5-(trifluoromethyl)pyrimidin-2-amine], for which the pIC50 was over 7.52.
The molecule `Cc1nn(C(C)(C)c2cn[nH]n2)cc1Nc1ncc(C(F)(F)F)c(C2CC2)n1` [Compound A-71, N-(1-(2-(2H-1,2,3-triazol-4-yl)propan-2-yl)-3-methyl-1H-pyrazol-4-yl)-4-cyclopropyl-5-(trifluoromethyl)pyrimidin-2-amine] gave a pIC50 of over 7.52.
`Cc1nnc(C(C)(C)n2cc(Nc3ncc(C(F)(F)F)c(C4CC4)n3)c(C)n2)o1` [Compound A-74, 4-cyclopropyl-N-(3-methyl-1-(2-(5-methyl-1,3,4-oxadiazol-2-yl)propan-2-yl)-1H-pyrazol-4-yl)-5-(trifluoromethyl)pyrimidin-2-amine] showed a pIC50 of 7.22 to 7.52.
On to `Cc1nn(C(F)(F)c2ncn(C)n2)cc1Nc1ncc(C(F)(F)F)c(C2CC2)n1` [Compound A-75, 4-cyclopropyl-N-[1-[difluoro(1-methyl-1H-1,2,4-triazol-3-yl)methyl]-3-methyl-pyrazol-4-yl]-5-(trifluoromethyl)pyrimidin-2-amine], for which the pIC50 is over 7.52.
Turning to `Cc1nn(C(F)(F)c2ncnn2C)cc1Nc1ncc(C(F)(F)F)c(C2CC2)n1` [Compound A-76, 4-cyclopropyl-N-[1-[difluoro-(2-methyl-1,2,4-triazol-3-yl)methyl]-3-methyl-pyrazol-4-yl]-5-(trifluoromethyl)pyrimidin-2-amine], the negative-log IC50 (pIC50) is under 7.22.
Same read-out and setting: the value for `Cc1nn(C(F)(F)c2nc[nH]n2)cc1Nc1ncc(C(F)(F)F)c(C2CC2)n1` [Compound A-77, 4-cyclopropyl-N-(1-(difluoro(1H-1,2,4-triazol-3-yl)methyl)-3-methyl-1H-pyrazol-4-yl)-5-(trifluoromethyl)pyrimidin-2-amine] was over 7.52; that for `Cc1c(Nc2ncc(C(F)(F)F)c(C3CC3)n2)cnn1[C@H]1C[C@H](c2ncnn2C)C1` [Compound A-80, 4-cyclopropyl-N-(5-methyl-1-((1r,3r)-3-(1-methyl-1H-1,2,4-triazol-5-yl)cyclobutyl)-1H-pyrazol-4-yl)-5-(trifluoromethyl)pyrimidin-2-amine] was over 7.52.
The same measure, in the same setting: next, `Cc1nn([C@H]2C[C@H](c3ncnn3C)C2)cc1Nc1ncc(C(F)(F)F)c(C2CC2)n1` [Compound A-81, 4-cyclopropyl-N-(3-methyl-1-((1r,3r)-3-(1-methyl-1H-1,2,4-triazol-5-yl)cyclobutyl)-1H-pyrazol-4-yl)-5-(trifluoromethyl)pyrimidin-2-amine]: over 7.52; `Cc1nn(C(F)(F)C(N)=O)cc1Nc1ncc(C(F)(F)F)c(C2CC2)n1` [Compound A-87]: over 7.52; `Cc1c(Nc2ncc(C(F)(F)F)c(C3CC3)n2)cnn1C1(C)CCNC1=O` (stereo not shown) [Compound A-93]: over 7.52.

Still in this experiment, the particulars now being: Table B-2; 5 nM LRRK2, 134 μM ATP, 60 minute reaction, 23° C.
On to `CNc1nc(Nc2cnn(C)c2C)nc2[nH]cc(Cl)c12` [Compound B-1, 5-chloro-N^2-(1,5-dimethylpyrazol-4-yl)-N4-methyl-7H-pyrrolo[2,3-d]pyrimidine-2,4-diamine], for which the pIC50 is 8.70 to 9.00.
On the same count and under the same terms, next, `CCNc1nc(Nc2cn(C(C)(C)C#N)nc2C)nc2[nH]cc(Cl)c12` [Compound B-2, 2-[4-[[5-chloro-4-(ethylamino)-7H-pyrrolo[2,3-d]pyrimidin-2-yl]amino]-3-methyl-pyrazol-1-yl]-2-methyl-propanenitrile]: at least 9.00; `CCOc1nc(Nc2cn(C(C)(C)C#N)nc2C)nc2[nH]cc(Cl)c12` [Compound B-3, 2-[4-[[5-chloro-4-ethoxy-7H-pyrrolo[2,3-d]pyrimidin-2-yl]amino]-3-methyl-pyrazol-1-yl]-2-methyl-propanenitrile]: at least 9.00; `CNc1nc(Nc2cn(C)nc2C)nc2[nH]cc(Cl)c12` [Compound B-4, 5-chloro-N^2-(1,3-dimethyl-1H-pyrazol-4-yl)-N^4-methyl-7H-pyrrolo[2,3-d]pyrimidine-2,4-diamine]: 7.70 to 8.70.
With `COc1nc(Nc2cn(C(C)(C)C#N)nc2C)nc2[nH]cc(Cl)c12` [Compound B-5, 2-[4-[(5-chloro-4-methoxy-7H-pyrrolo[2,3-d]pyrimidin-2-yl)amino]-3-methyl-pyrazol-1-yl]-2-methyl-propanenitrile], the pIC50 was 8.70 to 9.00.
The same measure, in the same setting: the value for `CNc1nc(Nc2cn(C(C)(C)C#N)nc2C)nc2[nH]cc(Cl)c12` [Compound B-6, 2-[4-[[5-Chloro-4-(methylamino)-7H-pyrrolo[2,3-d]pyrimidin-2-yl]amino]-3-methyl-pyrazol-1-yl]-2-methyl-propanenitrile] was at least 9.00.
In turn, `COc1nc(Nc2cn(C(C)(C)C#N)nc2C)nc2[nH]cnc12` [Compound B-7, 2-(4-((6-methoxy-9H-purin-2-yl)amino)-3-methyl-1H-pyrazol-1-yl)-2-methylpropanenitrile] showed a pIC50 of 7.70 to 8.70.
In the case of `COc1nc(Nc2cnn(C)c2C)nc2[nH]cc(Cl)c12` [Compound B-8, 5-chloro-N-(1,5-dimethylpyrazol-4-yl)-4-methoxy-7H-pyrrolo[2,3-d]pyrimidin-2-amine], the pIC50 was 8.70 to 9.00.
As to `COc1nc(Nc2cn(C)nc2C)nc2[nH]cc(Cl)c12` [Compound B-9, 5-chloro-N-(1,3-dimethylpyrazol-4-yl)-4-methoxy-7H-pyrrolo[2,3-d]pyrimidin-2-amine], the pIC50 is 7.70 to 8.70.
For the molecule `CNc1nc(Nc2cn(C(C)(C)C#N)nc2C)nc2[nH]cc(F)c12` [Compound B-10, 2-(4-((5-fluoro-4-(methylamino)-7H-pyrrolo[2,3-d]pyrimidin-2-yl)amino)-3-methyl-1H-pyrazol-1-yl)-2-methylpropanenitrile], the pIC50 is 8.70 to 9.00.
The molecule `COc1nc(Nc2cn(C(C)(C)C#N)nc2C)nc2[nH]cc(F)c12` [Compound B-11, 2-[4-[(5-fluoro-4-methoxy-7H-pyrrolo[2,3-d]pyrimidin-2-yl)amino]-3-methyl-pyrazol-1-yl]-2-methyl-propanenitrile] had a pIC50 of 8.70 to 9.00.
The same measure, in the same setting: next, `CCOc1nc(Nc2cn(C(C)(C)C#N)nc2C)nc2[nH]cnc12` [Compound B-12, 2-[4-[(6-ethoxy-9H-purin-2-yl)amino]-3-methyl-pyrazol-1-yl]-2-methyl-propanenitrile]: 7.70 to 8.70.
For `COc1nc(Nc2cn(C(C)(C)C#N)nc2C)nc2[nH]cc(C3CC3)c12` [Compound B-13, 2-[4-[(5-cyclopropyl-4-methoxy-7H-pyrrolo[2,3-d]pyrimidin-2-yl)amino]-3-methyl-pyrazol-1-yl]-2-methyl-propanenitrile], the pIC50 was 7.70 to 8.70.
Same read-out and setting: the value for `COc1nc(Nc2cn(C(C)(C)C#N)nc2C)nc2[nH]cc(C(F)(F)F)c12` [Compound B-14, 2-(4-((4-methoxy-5-(trifluoromethyl)-7H-pyrrolo[2,3-d]pyrimidin-2-yl)amino)-3-methyl-1H-pyrazol-1-yl)-2-methylpropanenitrile] was 7.70 to 8.70.

The experiment is the same for the next values; noted with them: Table C-2; 5 nM LRRK2, 134 μM ATP, 60 minute reaction, 23° C.
The molecule `Cc1nn(C(CF)CF)cc1Nc1nc(C2CC2)c2nc[nH]c2n1` [Compound C-1, 6-cyclopropyl-N-[1-[2-fluoro-1-(fluoromethyl)ethyl]-3-methyl-pyrazol-4-yl]-9H-purin-2-amine] showed a pIC50 of over 7.30.
For `Cc1c(Nc2nc(C3CC3)c3nc[nH]c3n2)cnn1C(CF)CF` [Compound C-2, 6-cyclopropyl-N-(1-(1,3-difluoropropan-2-yl)-5-methyl-1H-pyrazol-4-yl)-9H-purin-2-amine], the pIC50 is over 7.30.
`Cc1c(Nc2nc(C3CC3)c3nc[nH]c3n2)cnn1C(F)F` [Compound C-4, 6-cyclopropyl-N-(1-(difluoromethyl)-5-methyl-1H-pyrazol-4-yl)-9H-purin-2-amine]: the pIC50 is over 7.30.
`Cc1c(Nc2nc(C3CC3)c3nc[nH]c3n2)cnn1C` [Compound C-5, 6-cyclopropyl-N-(1,5-dimethylpyrazol-4-yl)-9H-purin-2-amine] showed a pIC50 of over 7.30.
`Cc1nn(C)cc1Nc1nc(C2CC2)c2nc[nH]c2n1` [Compound C-6, 6-cyclopropyl-N-(1,3-dimethylpyrazol-4-yl)-9H-purin-2-amine] showed a pIC50 of over 7.30.
On the same count and under the same terms, next, `Cc1c(Nc2nc(C3CC3)c3nc[nH]c3n2)cnn1CC1CC1` [Compound C-7, 6-cyclopropyl-N-(1-(cyclopropylmethyl)-5-methyl-1H-pyrazol-4-yl)-9H-purin-2-amine]: over 7.30; `c1nc2c(C3CC3)nc(Nc3cnn4c3CC3(CC3)C4)nc2[nH]1` [Compound C-8, N-(6-cyclopropyl-9H-purin-2-yl)spiro[4,6-dihydropyrrolo[1,2-b]pyrazole-5,1 cyclopropane]-3-amine]: over 7.30; `Cc1nn(C(C)(C)C#N)cc1Nc1nc(C2CC2)c2nc[nH]c2n1` [Compound C-9, 2-(4-((6-cyclopropyl-9H-purin-2-yl)amino)-3-methyl-1H-pyrazol-1-yl)-2-methylpropanenitrile]: over 7.30.
Take `Cc1nn(C(C)(C)C#N)cc1Nc1nc(C2CC2)c2c(C#N)c[nH]c2n1` [Compound C-10, 2-[[1-(1-cyano-1-methyl-ethyl)-3-methyl-pyrazol-4-yl]amino]-4-cyclopropyl-7H-pyrrolo[2,3-d]pyrimidine-5-carbonitrile]: the pIC50 is over 7.30.
